Data as given in patent US8372844B2, “Piperazinyl-propyl-pyrazole derivatives as dopamine D4 receptor antagonists, and pharmaceutical compositions containing the same” (Korea Research Institute of Chemical Technology, priority 2007, dated 2013).

Legend:
rotarod deficit in mice [1] = assay: Rotarod deficit in mice; format: in vivo; conditions: ip
Experimental: (§1) Each mouse was administered with a test drug, and then placed on a 1 inch diameter knurled plastic rod rotating at 6 rpm (Ugo-Basile, Milano, Italy), and the rotarod deficit (%) was obtained by counting the number of mice fallen from the rotating rod within 1 min at 30, 60, 90, and 120 min after the administration of the drug.

[2] = tested on: apomorphine-induced cage climbing in mice; assay: Apomorphine-induced climbing behavior in mice; format: in vivo; conditions: ip 30 min prior to apomorphine (1 mg/kg, sc); for ED50: Mus musculus, read-out: Inhibitory effects on apomorphine-induced climbing behavior ED50 (mg/kg, ip)
Experimental: When mice were treated with apomorphine (1 mg/kg, sc), a potent dopamine receptor agonist, and were put into cylindrical cages (diameter, 12 cm/height, 14 cm) with the floor and wall consisting of metal bars and covered with a lid, they begin to perform repeatedly a psychotic behavior of ‘cage climbing’. Their climbing behaviors were monitored every 10 min for 30 min and scored by 4-point rating scale (0˜3 points) depending on the extent of the behavior (Costentin, J. et al., Nature 1975, 257, 405-7; Protais, P. et al., Psychopharmacology 1976, 50, 1-6).
The compounds were injected intraperitoneally into mice 30 min prior to apomorphine administration. The inhibitory effects of the compounds against control group were measured and each ED50 was calculated therefrom.

5-HT2C receptor = molecular target: T1, 5-HT2C receptor (Homo sapiens, UniProt P28335); assay: Serotonin receptor binding experiment, 5-HT2C; set-up: species or system human or rat; conditions: [3H]Mesulergine 1 nM, 30 min at 37° C.; read-out: Receptor affinity (IC50, nM) 5-HT2C
T1 sequence (P28335 33-458): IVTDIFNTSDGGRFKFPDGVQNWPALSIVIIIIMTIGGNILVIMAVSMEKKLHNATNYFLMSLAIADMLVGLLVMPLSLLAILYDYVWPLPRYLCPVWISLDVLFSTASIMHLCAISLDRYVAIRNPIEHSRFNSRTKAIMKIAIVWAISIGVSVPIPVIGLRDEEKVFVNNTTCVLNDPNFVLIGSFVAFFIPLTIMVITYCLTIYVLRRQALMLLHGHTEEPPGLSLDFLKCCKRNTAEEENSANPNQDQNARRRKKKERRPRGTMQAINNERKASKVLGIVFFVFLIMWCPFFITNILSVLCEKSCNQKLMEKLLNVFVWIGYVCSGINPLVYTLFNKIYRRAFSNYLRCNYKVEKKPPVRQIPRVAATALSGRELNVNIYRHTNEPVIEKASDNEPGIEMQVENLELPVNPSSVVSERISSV
Experimental: (§2) The measurement of affinity for serotonin 5-HT receptor family was performed according to the experimental conditions as specified in Table 2 below using the method same as in Experimental Example 1 above.

[3] = molecular target: T2, human recombinant dopamine D4.2 receptor (Homo sapiens, UniProt P21917, DEL265-296); assay: Measurement of affinity for dopamine D4 receptor ([3H]YM-09151-2 binding); conditions: [3H]YM-09151-2 0.1 nM, receptor expressed in CHO-K1 cells, 120 min at 25° C.
T2 construct: purchased PerkinElmer Life and Analytical Sciences, USA; host or cells: CHO-K1 cells
T2 sequence (P21917 with tags, fused parts or gaps DEL265-296): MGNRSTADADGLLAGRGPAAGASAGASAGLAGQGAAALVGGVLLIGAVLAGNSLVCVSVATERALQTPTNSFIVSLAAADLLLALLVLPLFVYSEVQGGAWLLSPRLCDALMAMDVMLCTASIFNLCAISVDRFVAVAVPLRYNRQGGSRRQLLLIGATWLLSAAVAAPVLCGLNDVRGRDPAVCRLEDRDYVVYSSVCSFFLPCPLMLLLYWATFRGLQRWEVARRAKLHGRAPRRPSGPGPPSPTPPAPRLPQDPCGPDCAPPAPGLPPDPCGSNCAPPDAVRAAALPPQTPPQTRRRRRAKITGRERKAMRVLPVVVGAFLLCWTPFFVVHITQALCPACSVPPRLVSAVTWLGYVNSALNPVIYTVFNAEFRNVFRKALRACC
Experimental: The affinities of the compounds for dopamine D4 receptor were measured by using human recombinant dopamine D4.2 receptor (PerkinElmer Life and Analytical Sciences, USA) expressed in CHO-K1 cells, and [^3H]YM-09151-2 (PerkinElmer) was used as a radioactive ligand.
50 mM Tris-HCl (pH 7.4) containing 120 mM NaCl, 5 mM KCl, 5 mM MgCl2 and 1 mM EDTA was used as a buffer solution for the analysis of receptor binding. [^3H] YM-09151-2 binding reactions were performed in a 96-well plate format.
For drug screening, a reaction mixture with a final volume of 0.25 mL was prepared by mixing a compound of the present invention, D4 receptor membrane (43 μg/well), [^3H] YM-09151-2 (0.1 nM), 50 mM Tris-HCl (pH 7.4) and the like. The reaction mixture was incubated for 120 min at 25° C., and then promptly passed through Wallac GF/C glass fiber filter (Wallac, Finland), which was already wetted in 0.5% PEI, by using Inotech harvester (Inotech) to terminate the reaction, and then washed with cold 50 mM Tris-HCl buffer solution. The filter was then covered with MeltiLex, sealed in a sample bag, and then dried in an oven. The radioactivity retained in the filter was finally counted using MicroBeta Plus, Wallac.
The affinity (IC50) of a compound for the receptor was calculated via nonlinear regression analysis of sigmoidal dose-response equation with the data obtained from three independent experiments (GraphPad Prism Program, San Diego, USA), which are carried out using 7-8 different concentrations of the compound in duplicate. Nonspecific binding was measured in the presence of 10 μM clozapine.

5-HT7 receptor = 5-HT7 receptor (Homo sapiens, UniProt P34969); assay: Serotonin receptor binding experiment, 5-HT7; set-up: species or system human or rat; conditions: [3H]LSD 3 nM, 90 min at 27° C.; read-out: Receptor affinity (IC50, nM) 5-HT7
Experimental: as §2

5-HT6 receptor = 5-HT6 receptor (Homo sapiens, UniProt P50406); assay: Serotonin receptor binding experiment, 5-HT6; set-up: species or system human or rat; conditions: [3H]LSD 1.8 nM, 60 min at 37° C.; read-out: Receptor affinity (IC50, nM) 5-HT6
Experimental: as §2

5-HT2A receptor = 5-HT2A receptor (Homo sapiens, UniProt P28223); assay: Serotonin receptor binding experiment, 5-HT2A; set-up: species or system human or rat; conditions: [3H]ketanserin 1 nM, 15 min at 37° C.; read-out: Receptor affinity (IC50, nM) 5-HT2A
Experimental: as §2

5-HT1A receptor = molecular target: T3, 5-HT1A receptor (Homo sapiens, UniProt P08908); assay: Serotonin receptor binding experiment, 5-HT1A; set-up: species or system human or rat; conditions: [3H]8-OH-DPAT 0.5 nM, 60 min at 27° C.; read-out: Receptor affinity (IC50, nM) 5-HT1A
T3 sequence (P08908 1-422): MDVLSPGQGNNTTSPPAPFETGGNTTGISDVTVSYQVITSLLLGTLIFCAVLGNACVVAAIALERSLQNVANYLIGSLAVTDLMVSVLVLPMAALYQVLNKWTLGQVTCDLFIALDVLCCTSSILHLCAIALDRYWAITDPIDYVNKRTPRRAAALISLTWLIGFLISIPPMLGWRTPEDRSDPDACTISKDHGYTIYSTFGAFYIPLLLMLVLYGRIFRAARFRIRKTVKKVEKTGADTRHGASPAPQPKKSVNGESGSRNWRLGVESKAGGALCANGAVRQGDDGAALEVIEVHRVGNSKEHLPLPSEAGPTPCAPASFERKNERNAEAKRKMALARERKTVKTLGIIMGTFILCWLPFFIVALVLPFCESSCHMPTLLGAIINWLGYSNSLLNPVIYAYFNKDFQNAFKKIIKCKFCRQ
Experimental: as §2

[4] = molecular target: T4, Human recombinant dopamine D2 receptor (Homo sapiens, UniProt P14416); assay: Measurement of affinity for dopamine D2 receptor ([3H]spiperone binding)
T4 construct: purchased PerkinElmer; host or cells: CHO cell line
Experimental: (§3) Human recombinant dopamine D2 and D3 receptors, which were expressed in CHO cell lines, respectively, were purchased from PerkinElmer and Euroscreen, respectively.
(§4) 50 mM Tris-HCl (pH 7.4) containing […] and 1 mM EDTA was used as a buffer solution for the measurement of affinity for dopamine D2 receptor. 50 mM Tris-HCl (pH 7.4) containing 5 mM MgCl2, 5 mM EDTA, 5 mM KCl, 1.5 mM CaCl2 and 120 mM NaCl was used as a buffer solution for the measurement of affinity for dopamine D3 receptor. For measurement of non-specific binding, 10 μM haloperidol (haloperidol) was used.

[5] = molecular target: T5, Human recombinant dopamine D3 receptor (Homo sapiens, UniProt P35462); assay: Measurement of affinity for dopamine D3 receptor ([3H]spiperone binding); conditions: [3H]spiperone 0.8 nM, CHO cell line, 60 min at 27° C.
T5 construct: purchased Euroscreen; host or cells: CHO cell line
Experimental: as §3, §4

Rotarod deficit in mice [6] = format: in vivo; conditions: mouse, in vivo; mice, ip, rod rotating at 6 rpm, 30-120 min after administration
Experimental: as §1

T4 sequence (P14416 whole entry): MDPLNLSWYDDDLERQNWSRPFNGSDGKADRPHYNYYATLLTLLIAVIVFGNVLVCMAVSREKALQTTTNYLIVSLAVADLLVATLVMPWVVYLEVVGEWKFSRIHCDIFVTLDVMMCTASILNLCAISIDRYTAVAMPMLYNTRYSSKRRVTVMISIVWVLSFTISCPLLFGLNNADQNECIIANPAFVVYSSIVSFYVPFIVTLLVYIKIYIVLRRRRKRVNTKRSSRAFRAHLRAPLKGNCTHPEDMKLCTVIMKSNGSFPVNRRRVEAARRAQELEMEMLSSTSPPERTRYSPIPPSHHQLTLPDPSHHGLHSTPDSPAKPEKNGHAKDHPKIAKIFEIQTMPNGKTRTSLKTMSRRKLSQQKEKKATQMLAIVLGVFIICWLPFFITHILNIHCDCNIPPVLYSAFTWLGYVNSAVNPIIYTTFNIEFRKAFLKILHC
5-HT2A receptor, sequence (P28223 whole entry): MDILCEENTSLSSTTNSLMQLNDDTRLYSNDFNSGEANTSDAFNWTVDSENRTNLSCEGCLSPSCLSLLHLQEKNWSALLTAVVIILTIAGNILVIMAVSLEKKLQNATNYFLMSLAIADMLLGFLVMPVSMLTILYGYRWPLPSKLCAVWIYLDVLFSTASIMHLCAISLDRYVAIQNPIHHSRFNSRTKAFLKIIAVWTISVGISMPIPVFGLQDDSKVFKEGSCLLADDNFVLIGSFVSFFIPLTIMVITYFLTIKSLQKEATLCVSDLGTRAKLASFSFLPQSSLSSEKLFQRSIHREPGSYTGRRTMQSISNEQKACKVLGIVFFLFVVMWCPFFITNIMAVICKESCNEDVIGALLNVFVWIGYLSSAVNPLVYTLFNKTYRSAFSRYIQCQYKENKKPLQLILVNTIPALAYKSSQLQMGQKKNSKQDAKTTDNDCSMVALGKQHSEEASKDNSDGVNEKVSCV
5-HT6 receptor, sequence (P50406 whole entry): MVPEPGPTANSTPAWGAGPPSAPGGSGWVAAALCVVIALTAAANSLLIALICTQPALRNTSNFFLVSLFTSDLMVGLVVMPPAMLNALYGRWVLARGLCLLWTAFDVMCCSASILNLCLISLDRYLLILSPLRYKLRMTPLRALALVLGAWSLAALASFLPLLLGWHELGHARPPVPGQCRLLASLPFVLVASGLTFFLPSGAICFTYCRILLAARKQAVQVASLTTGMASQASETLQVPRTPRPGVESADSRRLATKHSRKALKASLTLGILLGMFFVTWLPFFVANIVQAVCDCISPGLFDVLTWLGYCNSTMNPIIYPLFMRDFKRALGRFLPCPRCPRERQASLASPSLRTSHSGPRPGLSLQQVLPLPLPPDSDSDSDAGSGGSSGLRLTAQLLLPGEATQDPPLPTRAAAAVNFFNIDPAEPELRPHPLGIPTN
T5 sequence (P35462 whole entry): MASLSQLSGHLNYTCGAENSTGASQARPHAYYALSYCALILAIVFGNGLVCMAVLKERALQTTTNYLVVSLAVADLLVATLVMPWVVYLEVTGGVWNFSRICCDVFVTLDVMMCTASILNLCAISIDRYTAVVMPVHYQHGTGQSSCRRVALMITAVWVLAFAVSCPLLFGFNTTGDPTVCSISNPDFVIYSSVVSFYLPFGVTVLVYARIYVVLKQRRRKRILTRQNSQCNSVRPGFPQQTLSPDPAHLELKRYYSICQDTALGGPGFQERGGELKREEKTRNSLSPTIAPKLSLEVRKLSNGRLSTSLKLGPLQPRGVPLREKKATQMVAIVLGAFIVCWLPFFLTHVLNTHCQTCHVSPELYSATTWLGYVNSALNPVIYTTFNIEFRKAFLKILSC
5-HT7 receptor, sequence (P34969 whole entry): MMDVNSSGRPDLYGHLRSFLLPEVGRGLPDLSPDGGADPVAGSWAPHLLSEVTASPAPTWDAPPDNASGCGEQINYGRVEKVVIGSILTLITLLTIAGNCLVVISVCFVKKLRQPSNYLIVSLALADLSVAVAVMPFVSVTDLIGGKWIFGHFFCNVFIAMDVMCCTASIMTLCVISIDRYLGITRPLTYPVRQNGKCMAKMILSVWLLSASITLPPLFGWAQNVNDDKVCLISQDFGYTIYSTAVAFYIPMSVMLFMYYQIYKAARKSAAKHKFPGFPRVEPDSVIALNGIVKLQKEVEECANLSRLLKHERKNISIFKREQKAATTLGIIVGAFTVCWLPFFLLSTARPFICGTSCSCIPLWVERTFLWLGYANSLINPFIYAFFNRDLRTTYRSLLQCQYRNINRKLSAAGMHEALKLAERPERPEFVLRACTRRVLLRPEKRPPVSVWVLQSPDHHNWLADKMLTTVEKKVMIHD

**Q.** Which “rotarod deficit TD50 as times of ED50 for antipsychotic efficacy” value (rotarod deficit in mice [1]; mouse, in vivo) does the source give for CCCc1cc(CCCN2CCN(c3ccc(Cl)cc3)CC2)n(-c2ccccc2)n1 [Compound 157, 1-(4-chlorophenyl)-4-(3-(1-phenyl-3-propyl-1H-pyrazol-5-yl)propyl)piperazine] here?
**A.** 2.2-5 times

**Q.** And the ED50 [2]?
**A.** 8.8 to 14.5 mg/kg

**Q.** What about the “Inhibitory effects on apomorphine-induced climbing behavior ED50 (mg/kg, ip)” value [2] of the same compound?
**A.** 14.5 mg/kg

**Q.** With CCCc1cc(CCCN2CCN(c3ccc(Cl)c(Cl)c3)CC2)n(-c2ccccc2)n1 [Compound 163, 1-(3,4-dichlorophenyl)-4-(3-(1-phenyl-3-propyl-1H-pyrazol-5-yl)propyl)piperazine] as the compound, how does the IC50 (5-HT2C receptor) read?
**A.** 558 nM

**Q.** What about the IC50 [3] of the same compound?
**A.** 7.7 nM

**Q.** What about the IC50 (5-HT7 receptor) of the same compound?
**A.** 651 nM

**Q.** And the IC50 (5-HT6 receptor)?
**A.** 617 nM

**Q.** And the IC50 (5-HT2A receptor)?
**A.** 45 nM

**Q.** And the IC50 (5-HT1A receptor)?
**A.** 494 nM

**Q.** What about the “affinity for D2 receptors (in words)” value [4] of the same compound?
**A.** extremely poor affinity

**Q.** What about the IC50 ([4]; [3H]spiperone 0.5 nM, CHO cell line, 60 min at 27° C.) of the same compound?
**A.** 1060 nM

**Q.** And the IC50 [5]?
**A.** 420 nM

**Q.** Which results are given for CN1CCN(C2=Nc3cc(Cl)ccc3Nc3ccccc32)CC1 [clozapine, reference compound]?
**A.** TD50 (Rotarod deficit in mice [6]): 3.9 mg/kg; rotarod deficit TD50 as times of ED50 for antipsychotic efficacy (rotarod deficit in mice [1]; mice): almost same; ED50 [2]: 4 mg/kg
